# From patent US6706663B2, “Herbicidal 3-heterocyclic substituted benzisothiazole and benzisoxazole compounds” (Wyeth, priority 2000, dated 2004)
# Experiments:
# [1] = tested on: CASOB (Cassia obtusifolia); experiment: Preemergence herbicidal evaluation; type: in vivo, L.; details: rated 4-5 weeks after treatment
# Method in brief: (§1)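 Visual 0-9 rating versus untreated control, taken four to five weeks post-treatment, scoring stand, vigor, malformation, size, chlorosis and overall appearance. Compound applied as aqueous acetone spray to freshly seeded soil cups, then kept under standard greenhouse care.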
# [2] = tested on: CHEAL (Chenopodium album); experiment: Preemergence herbicidal evaluation; type: in vivo, L.; details: rated 4-5 weeks after treatment
# Method in brief: as §1
# [3] = tested on: AMBEL (Ambrosia artemisifolia); experiment: Preemergence herbicidal evaluation; type: in vivo, L.; details: rated 4-5 weeks after treatment
# Method in brief: as §1
# [4] = tested on: TRZAWR (Wheat, Winter, cv Riband); experiment: Postemergence herbicidal evaluation; type: in vivo, Triticum aestivum; details: for TRZAWR herbicidal rating: postemergence
# Method in brief: (§2)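 Visual 0–9 injury scores versus control plants, covering stand, vigour, malformation, size, chlorosis and general appearance, taken four to five weeks post-spray and averaged over replicate tests. Plants were sprayed at roughly two weeks old and held on greenhouse benches.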
# [5] = tested on: SETVI (Setaria viridis); experiment: Postemergence herbicidal evaluation; type: in vivo, (L.) Beau; details: for SETVI herbicidal rating: postemergence
# Method in brief: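 ~2-wk seedlings; spray 0.0040–1.000 kg/ha in 50/50 acetone/water + 0.5% TWEEN 20, 40 psi nozzle. Greenhouse hold; visual 0–9 rating vs control at 4–5 wk; multiple tests averaged.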
# [6] = tested on: CYPSE (Cyperus serotinus); experiment: Flooded paddy, preemergence weed control; type: in vivo, Rottb.; details: rated 3-4 weeks after treatment, 0-9 rating scale
# Method in brief: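 Herbicidal effect was scored visually on a 0–9 scale against an untreated control 3–4 weeks after treatment. Compounds were applied preemergence as 50/50 v/v aqueous/acetone mixtures into flood water (1.5–3 cm deep over silt loam), at roughly 0.0080 to 0.1250 kg/ha active ingredient.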
# [7] = tested on: MOOVA (Monochoria vaginalis); experiment: Flooded paddy, preemergence weed control; type: in vivo, Presl.; details: rated 3-4 weeks after treatment, 0-9 rating scale
# Method in brief: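 Scoring used a 0-9 visual scale relative to control. Before that, seeds or propagules were planted shallowly in silt loam and flooded to 1.5–3 cm, a depth maintained throughout, with greenhouse care during the test.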
# [8] = tested on: ZEAMX (Corn, Field); experiment: Preemergence herbicidal evaluation; type: in vivo, Zea mays, L.; details: rated 4-5 weeks after treatment
# [9] = tested on: ABUTH (Abutilon theophrasti); experiment: Postemergence herbicidal evaluation; type: in vivo, Medic.; details: for ABUTH herbicidal rating: postemergence
# Method in brief: as §2
# [10] = tested on: SETVI (Setaria viridis); experiment: Preemergence herbicidal evaluation; type: in vivo, (L.) Beau; details: rated 4-5 weeks after treatment
# Method in brief: as §1
# [11] = tested on: ECHCG (Echinochloa crus-galli); experiment: Preemergence herbicidal evaluation; type: in vivo, (L.) Beau; details: rated 4-5 weeks after treatment
# Method in brief: as §1
# [12] = tested on: IPOHE (Ipomoea hederacea); experiment: Postemergence herbicidal evaluation; type: in vivo, (L.) Jacq.; details: for IPOHE herbicidal rating: postemergence
# Method in brief: as §2
# [13] = tested on: GALAP (Galium aparine); experiment: Preemergence herbicidal evaluation; type: in vivo; details: rated 4-5 weeks after treatment
# Method in brief: as §1
# [14] = tested on: GALAP (Galium aparine); experiment: Postemergence herbicidal evaluation; type: in vivo; details: for GALAP herbicidal rating: postemergence
# Method in brief: as §2
# [15] = tested on: GLXMAW (Soybean, Williams); experiment: Postemergence herbicidal evaluation; type: in vivo, Glycine max, (L.) Merr. cv Williams; details: for GLXMAW herbicidal rating: postemergence
# Method in brief: as §2
# [16] = tested on: ABUTH (Abutilon theophrasti); experiment: Preemergence herbicidal evaluation; type: in vivo, Medic.; details: rated 4-5 weeks after treatment
# [17] = rate 0.0320 kg/ha, listed as 82
substance,measurement,setting,value
"1-methyl-3-[3-(1,3-oxathian-2-yl)-1,2-benzisothiazol-5-yl]-6-(trifluoromethyl)uracil S′,S′-dioxide [Compound 35]",CASOB preemergence herbicidal rating,[1]; Rate 0.0620 kg/ha,7.0
same,Preemergence herbicidal rating CASOB,[1]; Rate 0.0620 kg/ha,0.0
same,CASOB preemergence herbicidal rating,[1]; Rate 0.1250 kg/ha,7.0
same,Preemergence herbicidal rating CASOB,[1]; Rate 0.1250 kg/ha,1.5
same,CASOB preemergence herbicidal rating,[1]; Rate 0.2500 kg/ha,9.0
same,Preemergence herbicidal rating CASOB,[1]; Rate 0.2500 kg/ha,2.0
same,CHEAL preemergence herbicidal rating,[2]; Rate 0.0620 kg/ha,9.0
same,Preemergence herbicidal rating CHEAL,[2]; Rate 0.0620 kg/ha,9.0
same,CHEAL preemergence herbicidal rating,[2]; Rate 0.1250 kg/ha,9.0
same,Preemergence herbicidal rating CHEAL,[2]; Rate 0.1250 kg/ha,9.0
same,CHEAL preemergence herbicidal rating,[2]; Rate 0.2500 kg/ha,9.0
same,Preemergence herbicidal rating CHEAL,[2]; Rate 0.2500 kg/ha,9.0
same,AMBEL preemergence herbicidal rating,[3]; Rate 0.0620 kg/ha,9.0
same,Preemergence herbicidal rating AMBEL,[3]; Rate 0.0620 kg/ha,3.5
same,AMBEL preemergence herbicidal rating,[3]; Rate 0.1250 kg/ha,9.0
same,Preemergence herbicidal rating AMBEL,[3]; Rate 0.1250 kg/ha,5.5
same,AMBEL preemergence herbicidal rating,[3]; Rate 0.2500 kg/ha,9.0
same,Preemergence herbicidal rating AMBEL,[3]; Rate 0.2500 kg/ha,6.5
same,TRZAWR herbicidal rating,[4]; rate 0.0320 kg/ha,1.5
same,TRZAWR herbicidal rating,[4]; rate 0.0620 kg/ha,1.5
same,"Postemergence herbicidal rating, TRZAWR",[4]; rate 0.0320 kg/ha,7.0
same,"Postemergence herbicidal rating, TRZAWR",[4]; rate 0.0620 kg/ha,7.5
same,SETVI herbicidal rating,[5]; rate 0.0320 kg/ha,3.0
same,SETVI herbicidal rating,[5]; rate 0.0620 kg/ha,4.0
same,"Postemergence herbicidal rating, SETVI",[5]; rate 0.0320 kg/ha,9.0
same,"Postemergence herbicidal rating, SETVI",[5]; rate 0.0620 kg/ha,9.0
same,"herbicidal rating, CYPSE",[6]; rate 0.0320 kg/ha,2.0
same,"herbicidal rating, CYPSE",[6]; [17],9.0
same,"herbicidal rating, CYPSE",[6]; rate 0.1250 kg/ha,5.0
same,"herbicidal rating, CYPSE","[6]; rate 0.1250 kg/ha, listed as 82",9.0
same,"herbicidal rating, MOOVA",[7]; rate 0.0080 kg/ha,0.0
same,"herbicidal rating, MOOVA","[7]; rate 0.0080 kg/ha, listed as 82",8.5
same,"herbicidal rating, MOOVA",[7]; rate 0.0320 kg/ha,5.0
same,"herbicidal rating, MOOVA",[7]; [17],9.0
same,"herbicidal rating, MOOVA",[7]; rate 0.1250 kg/ha,9.0
same,ZEAMX preemergence herbicidal rating,[8]; Rate 0.0620 kg/ha,5.5
same,Preemergence herbicidal rating ZEAMX,[8]; Rate 0.0620 kg/ha,0.0
same,ZEAMX preemergence herbicidal rating,[8]; Rate 0.1250 kg/ha,9.0
same,Preemergence herbicidal rating ZEAMX,[8]; Rate 0.1250 kg/ha,1.0
same,ZEAMX preemergence herbicidal rating,[8]; Rate 0.2500 kg/ha,9.0
same,Preemergence herbicidal rating ZEAMX,[8]; Rate 0.2500 kg/ha,2.5
same,ABUTH herbicidal rating,[9]; rate 0.0320 kg/ha,9.0
same,ABUTH herbicidal rating,[9]; rate 0.0620 kg/ha,9.0
same,"Postemergence herbicidal rating, ABUTH",[9]; rate 0.0320 kg/ha,9.0
same,"Postemergence herbicidal rating, ABUTH",[9]; rate 0.0620 kg/ha,9.0
same,SETVI preemergence herbicidal rating,[10]; Rate 0.0620 kg/ha,9.0
same,Preemergence herbicidal rating SETVI,[10]; Rate 0.0620 kg/ha,8.0
same,SETVI preemergence herbicidal rating,[10]; Rate 0.1250 kg/ha,9.0
same,Preemergence herbicidal rating SETVI,[10]; Rate 0.1250 kg/ha,9.0
same,SETVI preemergence herbicidal rating,[10]; Rate 0.2500 kg/ha,9.0
same,Preemergence herbicidal rating SETVI,[10]; Rate 0.2500 kg/ha,9.0
same,ECHCG preemergence herbicidal rating,[11]; Rate 0.0620 kg/ha,8.0
same,Preemergence herbicidal rating ECHCG,[11]; Rate 0.0620 kg/ha,3.0
same,ECHCG preemergence herbicidal rating,[11]; Rate 0.1250 kg/ha,9.0
same,Preemergence herbicidal rating ECHCG,[11]; Rate 0.1250 kg/ha,6.0
same,ECHCG preemergence herbicidal rating,[11]; Rate 0.2500 kg/ha,9.0
same,Preemergence herbicidal rating ECHCG,[11]; Rate 0.2500 kg/ha,7.5
same,IPOHE herbicidal rating,[12]; rate 0.0320 kg/ha,7.0
same,IPOHE herbicidal rating,[12]; rate 0.0620 kg/ha,9.0
same,"Postemergence herbicidal rating, IPOHE",[12]; rate 0.0320 kg/ha,9.0
same,"Postemergence herbicidal rating, IPOHE",[12]; rate 0.0620 kg/ha,9.0
same,GALAP preemergence herbicidal rating,[13]; Rate 0.0620 kg/ha,9.0
same,Preemergence herbicidal rating GALAP,[13]; Rate 0.0620 kg/ha,7.0
same,GALAP preemergence herbicidal rating,[13]; Rate 0.1250 kg/ha,9.0
same,Preemergence herbicidal rating GALAP,[13]; Rate 0.1250 kg/ha,9.0
same,GALAP preemergence herbicidal rating,[13]; Rate 0.2500 kg/ha,9.0
same,Preemergence herbicidal rating GALAP,[13]; Rate 0.2500 kg/ha,9.0
same,GALAP herbicidal rating,[14]; rate 0.0320 kg/ha,2.0
same,GALAP herbicidal rating,[14]; rate 0.0620 kg/ha,4.0
same,"Postemergence herbicidal rating, GALAP",[14]; rate 0.0320 kg/ha,3.0
same,"Postemergence herbicidal rating, GALAP",[14]; rate 0.0620 kg/ha,4.0
same,GLXMAW herbicidal rating,[15]; rate 0.0320 kg/ha,4.0
same,GLXMAW herbicidal rating,[15]; rate 0.0620 kg/ha,5.5
same,"Postemergence herbicidal rating, GLXMAW",[15]; rate 0.0320 kg/ha,9.0
same,"Postemergence herbicidal rating, GLXMAW",[15]; rate 0.0620 kg/ha,9.0
same,ABUTH preemergence herbicidal rating,[16]; Rate 0.0620 kg/ha,9.0
same,Preemergence herbicidal rating ABUTH,[16]; Rate 0.0620 kg/ha,4.5
same,ABUTH preemergence herbicidal rating,[16]; Rate 0.1250 kg/ha,9.0
same,Preemergence herbicidal rating ABUTH,[16]; Rate 0.1250 kg/ha,9.0
same,ABUTH preemergence herbicidal rating,[16]; Rate 0.2500 kg/ha,9.0
same,Preemergence herbicidal rating ABUTH,[16]; Rate 0.2500 kg/ha,9.0
